# Laboratory results taken from patent US5128330A, “Oxazinone substituted phosphines” (Biofor, Ltd., priority 1991, dated 1992).
# Tested on: carrageenan-induced hind paw edema
# Assay: Acute antiinflammatory activity, carrageenan-induced paw edema test
# Assay type: in vivo, Male Sprague-Dawley rats
# Conditions: dosed 1 h before carrageenan, paw volume 3 h after carrageenan, rats
# Procedure: Anti-Inflammatory: This activity was evaluated using a modification of the carrageenan-induced paw edema test described by C. A. Winter et al in Proc. Soc. […] This assay measures the ability of the test compound to antagonize local edema, a characteristic of the inflammatory response.
# Acute antiinflammatory activity was evaluated using the carrageenan-inducedpaw edema test described by C. A. Winter, et al in Proc. Soc.
# Male Sprague-Dawley rats were divided into groups of six rats each. […] One hour after dosing with the test compounds, the left hind paws were injected with a 0.1 ml carrageenan solution (1% in distilled water, sterilized) intraplantarly. Three hours after carrageenan injection the volume of the injected paws was redetermined. Group means were also determined and the drug effect was calculated as percent inhibition of the hind paw edema according to the following equation: [formula]
Structure (SMILES),% Inhibition (percent inhibition of the hind paw edema) (100 mg/kg) [%],% Inhibition (percent inhibition of the hind paw edema) (100 mg (so in the source)) [%]
"CN1OCCC([P+](c2ccccc2)(c2ccccc2)c2ccccc2)C1=O (centres unmarked) [Example 1, (dihydro-N-methyl-2H-1,2-oxazin-3(4H)-oxo-4-yl)triphenylphosphonium bromide]",62,
CC(=O)Oc1ccccc1C(=O)O [Aspirin],,50
